Results: ChEMBL document CHEMBL1201862, “PubChem BioAssay data set” (2004)
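Following 48 hours of exposure in 96-well plates, responses at five concentrations were used to interpolate endpoints linearly. At the GI50, growth is halved.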 Active and inactive are the calls of the source. No stated cut-off is given here; in the data, active = GI50 up to about 1.1 µM and inactive = higher.

How the values were obtained:
Test in all cases: inhibition of tumour cell growth, NCI panel, 48 h
HCT-15 = test system: HCT-15
A549 = test system: A549
LOX IMVI = test system: LOX IMVI
HCC 2998 = test system: HCC 2998
MCF7 = test system: MCF7
HOP-62 = test system: HOP-62
HCT-116 = test system: HCT-116
SF-268 = test system: SF-268
SW-620 = test system: SW-620
A498 = test system: A498
OVCAR-4 = test system: OVCAR-4
786-0 = test system: 786-0
SF-295 = test system: SF-295
SNB-75 = test system: SNB-75
EKVX = test system: EKVX
OVCAR-5 = test system: OVCAR-5
CCRF-CEM = test system: CCRF-CEM
PC-3 = test system: PC-3
SK-MEL-28 = test system: SK-MEL-28
SF-539 = test system: SF-539

Row | SMILES | GI50 (HCT-15) | GI50 (A549) | GI50 (LOX IMVI) | GI50 (HCC 2998) | GI50 (MCF7) | GI50 (HOP-62) | GI50 (HCT-116) | GI50 (SF-268) | GI50 (SW-620) | GI50 (A498) | GI50 (OVCAR-4) | GI50 (786-0) | GI50 (SF-295) | GI50 (SNB-75) | GI50 (EKVX) | GI50 (OVCAR-5) | GI50 (CCRF-CEM) | GI50 (PC-3) | GI50 (SK-MEL-28) | GI50 (SF-539)
1 | Cc1ccc(C2(c3ccc(Cl)cc3)c3ccccc3C3=NCCN32)cc1 (stereo unspecified) | 11.6 µM | 11.1 µM (inactive) | 12.8 µM (inactive) | 5.58 µM (inactive) | 1.44 µM (inactive) | 9.68 µM (inactive) | 2.19 µM (inactive) | 15.1 µM (inactive) | 10.8 µM (inactive) | 4.92 µM (inactive) | 1.83 µM (inactive) | 13.1 µM (inactive) | 1.59 µM (inactive) | 12.2 µM (inactive) | 14.1 µM (inactive) | 12.5 µM (inactive) | 4.5 µM (inactive) | 8.3 µM (inactive) | 14.7 µM (inactive) | 
2 | CCOc1ccc(NC(=O)/C=C/c2ccco2)cc1 | 41.2 µM | > 100 µM (inactive) | 54.3 µM (inactive) | 35.2 µM (inactive) | 75.2 µM (inactive) |  | 41.2 µM (inactive) | 78.7 µM (inactive) | > 100 µM (inactive) | 42.7 µM (inactive) |  | > 100 µM (inactive) | 61.8 µM (inactive) | 84.3 µM (inactive) | 87.3 µM (inactive) | > 100 µM (inactive) | 34.8 µM (inactive) | 35.6 µM (inactive) | > 100 µM (inactive) | 26 µM (inactive)
3 | CC(=O)NC1=CC(=O)C=C(Cl)C1=O | > 100 µM | > 100 µM (inactive) |  | > 100 µM (inactive) | 28.7 µM (inactive) | > 100 µM (inactive) | > 100 µM (inactive) | > 100 µM (inactive) | 19 µM (inactive) | > 100 µM (inactive) | 18.1 µM (inactive) | > 100 µM (inactive) | > 100 µM (inactive) | > 100 µM (inactive) | > 100 µM (inactive) | > 100 µM (inactive) | 22.9 µM (inactive) | > 100 µM (inactive) | > 100 µM (inactive) | > 100 µM (inactive)
4 | CC(C)(C)OC(=O)N(CCCCNCc1ccc2ccccc2c1)CCCNCc1ccc2ccccc2c1 | 1.57 µM | 1.81 µM (inactive) |  | 0.254 µM (active) | 1.55 µM (inactive) | 1.86 µM (inactive) | 1.15 µM (inactive) | 1.77 µM (inactive) | 1.75 µM (inactive) | 1.91 µM (inactive) | 1.67 µM (inactive) | 1.41 µM (inactive) | 1.9 µM (inactive) | 1.52 µM (inactive) | 1.56 µM (inactive) | 1.67 µM (inactive) | 1.22 µM (inactive) | 1.94 µM (inactive) | 1.8 µM (inactive) | 1.44 µM (inactive)
5 | Oc1cc(-c2cccc(Br)c2)nc2cc3c(cc12)OCO3 | 4.14 µM | 7.24 µM (inactive) | 2.75 µM (inactive) | 15.1 µM (inactive) | 18.7 µM (inactive) | 1.99 µM (inactive) | 3.53 µM (inactive) | 4.36 µM (inactive) | 3.61 µM (inactive) | 3.08 µM (inactive) | > 30.8 µM (inactive) | 3.52 µM (inactive) | 1.06 µM (active) | 2.72 µM (inactive) |  | 51.5 µM (inactive) | 8.38 µM (inactive) | 5.43 µM (inactive) | 2.77 µM (inactive) | 2.19 µM (inactive)
6 | O=C1ON=C2C3CC4CC12CC1(C3)C(=O)ON=C41 |  | > 100 µM (inactive) | > 100 µM (inactive) | > 100 µM (inactive) | > 100 µM (inactive) | > 100 µM (inactive) | > 100 µM (inactive) |  | > 100 µM (inactive) | > 100 µM (inactive) | > 100 µM (inactive) | > 100 µM (inactive) | > 100 µM (inactive) | > 100 µM (inactive) | > 100 µM (inactive) | > 100 µM (inactive) | > 100 µM (inactive) | > 100 µM (inactive) | > 100 µM (inactive) | > 100 µM (inactive)
7 | COc1cccc2nc3ccccc3nc12 | 39.1 µM | 54.2 µM (inactive) | 38.8 µM (inactive) | 79.4 µM (inactive) | 54.7 µM (inactive) | > 100 µM (inactive) | 38.5 µM (inactive) | 87.9 µM (inactive) | 45.8 µM (inactive) | 76.9 µM (inactive) |  | 74.1 µM (inactive) | 80 µM (inactive) | 60 µM (inactive) | 86.7 µM (inactive) | > 100 µM (inactive) | 43.4 µM (inactive) | 25.5 µM (inactive) | > 100 µM (inactive) | 84.5 µM (inactive)
